Experiments:
[1] = biological target: T1, bovine serum albumin (BSA) (Bos taurus, UniProt P02769); assay: intrinsic tryptophan fluorescence quenching titration (apparent kD); supported by CD spectra and CD melting (ΔTm −[…] °C); format: binding
T1 construct: gene ALB

[2] = biological target: T1, bovine serum albumin (BSA); assay: intrinsic tryptophan fluorescence quenching titration (apparent kD); supported by CD spectra and CD melting (ΔTm +[…] °C); format: binding

T1 sequence (P02769 25-607): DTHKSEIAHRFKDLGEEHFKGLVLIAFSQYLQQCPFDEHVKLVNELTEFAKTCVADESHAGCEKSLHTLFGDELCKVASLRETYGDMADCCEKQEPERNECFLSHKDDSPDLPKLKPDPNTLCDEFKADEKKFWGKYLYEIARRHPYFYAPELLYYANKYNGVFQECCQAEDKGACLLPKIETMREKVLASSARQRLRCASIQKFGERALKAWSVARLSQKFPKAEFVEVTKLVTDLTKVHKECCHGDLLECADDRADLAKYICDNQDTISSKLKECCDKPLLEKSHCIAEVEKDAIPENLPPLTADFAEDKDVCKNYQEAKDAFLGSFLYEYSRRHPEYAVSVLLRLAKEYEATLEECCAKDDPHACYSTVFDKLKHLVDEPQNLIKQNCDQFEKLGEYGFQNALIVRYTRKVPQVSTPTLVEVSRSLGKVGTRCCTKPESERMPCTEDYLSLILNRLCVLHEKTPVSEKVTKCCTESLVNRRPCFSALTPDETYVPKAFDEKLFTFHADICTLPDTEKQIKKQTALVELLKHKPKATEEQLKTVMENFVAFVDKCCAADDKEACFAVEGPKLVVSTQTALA

Row | Kd [1] | Kd [2] | SMILES
1 | 142 ± 64.6 nM |  | CCCCOC(=O)c1c(N)oc2c(-c3ccc([N+](=O)[O-])cc3)c3c(C(=O)OCCCC)c(N)oc3cc12 [BDF1]
2 |  | 28.4 ± 10.1 nM | CCCCOC(=O)c1c(N)oc2ccc(O)c(-c3ccc([N+](=O)[O-])cc3)c12 [BF1]

Reference: paper PMC8961527, “Protein Binding of Benzofuran Derivatives: A CD Spectroscopic and In Silico Comparative Study of the Effects of 4-Nitrophenyl Functionalized Benzofurans and Benzodifurans on BSA Protein Structure” (Biomolecules, 2022)
